Reference: PubChem BioAssay (NCI)
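1) Cells in 96-well plates. 2) Compound, 48 h, 5 concentrations. 3) Linear interpolation between surrounding doses. 4) Unreached endpoint = highest concentration. GI50: concentration for 50% inhibition of growth. TGI denotes the concentration required for complete inhibition of growth.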

How the values were obtained:
Assay in all cases: DTP human tumour cell line panel, 48 h
HT29 colon = test system: HT29 colon
SW-620 colon = test system: SW-620 colon
EKVX NSCLC = test system: EKVX NSCLC
KM12 colon = test system: KM12 colon
SF-268 CNS = test system: SF-268 CNS
HCT-15 colon = test system: HCT-15 colon
TK-10 renal = test system: TK-10 renal
CCRF-CEM leukemia = test system: CCRF-CEM leukemia
HL-60(TB) leukemia = test system: HL-60(TB) leukemia
MOLT-4 leukemia = test system: MOLT-4 leukemia
SF-295 CNS = test system: SF-295 CNS
MCF7 breast = test system: MCF7 breast
DU-145 prostate = test system: DU-145 prostate
A549 NSCLC = test system: A549 NSCLC
NCI-H522 lung = test system: NCI-H522 lung
HCT-116 colon = test system: HCT-116 colon
SK-MEL-28 melanoma = test system: SK-MEL-28 melanoma
CAKI-1 renal = test system: CAKI-1 renal
MDA-MB-231 breast = test system: MDA-MB-231 breast
SF-539 CNS = test system: SF-539 CNS
M14 melanoma = test system: M14 melanoma
SNB-19 CNS = test system: SNB-19 CNS
OVCAR-8 ovarian = test system: OVCAR-8 ovarian
SK-OV-3 ovarian = test system: SK-OV-3 ovarian
NCI/ADR-RES ovarian = test system: NCI/ADR-RES ovarian
HOP-62 NSCLC = test system: HOP-62 NSCLC
OVCAR-3 ovarian = test system: OVCAR-3 ovarian
K-562 leukemia = test system: K-562 leukemia
UACC-257 melanoma = test system: UACC-257 melanoma
T-47D breast = test system: T-47D breast
UACC-62 melanoma = test system: UACC-62 melanoma
IGROV1 ovarian = test system: IGROV1 ovarian
RXF 393 renal = test system: RXF 393 renal
SNB-75 CNS = test system: SNB-75 CNS
786-0 renal = test system: 786-0 renal
NCI-H226 lung = test system: NCI-H226 lung
U251 CNS = test system: U251 CNS
SR leukemia = test system: SR leukemia
OVCAR-5 ovarian = test system: OVCAR-5 ovarian
BT-549 breast = test system: BT-549 breast
NCI-H460 lung = test system: NCI-H460 lung
OVCAR-4 ovarian = test system: OVCAR-4 ovarian
PC-3 prostate = test system: PC-3 prostate
MDA-MB-435 = test system: MDA-MB-435
SK-MEL-2 melanoma = test system: SK-MEL-2 melanoma
A498 renal = test system: A498 renal
NCI-H23 lung = test system: NCI-H23 lung
COLO 205 colon = test system: COLO 205 colon
HOP-92 NSCLC = test system: HOP-92 NSCLC
SN12C renal = test system: SN12C renal
MALME-3M melanoma = test system: MALME-3M melanoma
ACHN renal = test system: ACHN renal
SK-MEL-5 melanoma = test system: SK-MEL-5 melanoma
UO-31 renal = test system: UO-31 renal
RPMI-8226 leukemia = test system: RPMI-8226 leukemia
HS 578T breast = test system: HS 578T breast
LOX IMVI melanoma = test system: LOX IMVI melanoma

## CCCCC#CC1=C(Br)C(=O)OC1
HT29 colon
  GI50: 2.85 µM
  TGI: > 22.1 µM
SW-620 colon
  GI50: 0.0237 µM
  TGI: 0.21 µM
EKVX NSCLC
  GI50: 3.79 µM
  TGI: 10.7 µM
KM12 colon
  GI50: 1.8 µM
  TGI: 3.89 µM
SF-268 CNS
  GI50: 2.47 µM
  TGI: 10.2 µM
HCT-15 colon
  GI50: 1.02 µM
TK-10 renal
  GI50: 1.8 µM
  TGI: 4.53 µM
CCRF-CEM leukemia
  GI50: 0.261 µM
HL-60(TB) leukemia
  GI50: 0.249 µM
  TGI: > 100 µM
MOLT-4 leukemia
  GI50: 0.319 µM
  TGI: > 100 µM
SF-295 CNS
  GI50: 6.2 µM
  TGI: 28.2 µM
MCF7 breast
  GI50: 1.03 µM
  TGI: 8.08 µM
DU-145 prostate
  GI50: 0.752 µM
  TGI: 2.34 µM
A549 NSCLC
  GI50: 17.2 µM
  TGI: 43.4 µM
NCI-H522 lung
  GI50: 2.27 µM
  TGI: 5.08 µM
HCT-116 colon
  GI50: 0.139 µM
  TGI: 0.327 µM
SK-MEL-28 melanoma
  GI50: 3.48 µM
  TGI: 16.4 µM
CAKI-1 renal
  GI50: 1.26 µM
  TGI: 4.63 µM
MDA-MB-231 breast
  GI50: 1.78 µM
  TGI: 4.03 µM
SF-539 CNS
  GI50: 2.52 µM
  TGI: 14.4 µM
M14 melanoma
  GI50: 1.26 µM
  TGI: 3.71 µM
SNB-19 CNS
  GI50: 12.9 µM
  TGI: 37.1 µM
OVCAR-8 ovarian
  GI50: 1.75 µM
  TGI: 10.2 µM
SK-OV-3 ovarian
  GI50: 36.1 µM
  TGI: > 77.2 µM
NCI/ADR-RES ovarian
  GI50: 2.04 µM
  TGI: 5.9 µM
HOP-62 NSCLC
  GI50: 7.13 µM
  TGI: 20.8 µM
OVCAR-3 ovarian
  GI50: 0.453 µM
  TGI: 2.27 µM
K-562 leukemia
  GI50: 0.279 µM
  TGI: > 100 µM
UACC-257 melanoma
  GI50: 2.2 µM
  TGI: 5.67 µM
T-47D breast
  GI50: 5.79 µM
  TGI: > 31.6 µM
UACC-62 melanoma
  GI50: 2.24 µM
  TGI: 7.1 µM
IGROV1 ovarian
  GI50: 0.368 µM
  TGI: 3.33 µM
RXF 393 renal
  GI50: 1.89 µM
  TGI: 4.57 µM
SNB-75 CNS
  GI50: 15.6 µM
  TGI: > 100 µM
786-0 renal
  GI50: 2 µM
  TGI: 5.14 µM
NCI-H226 lung
  GI50: 3.76 µM
  TGI: 26.6 µM
U251 CNS
  GI50: 1.59 µM
  TGI: > 20.1 µM
SR leukemia
  GI50: 0.36 µM
  TGI: > 100 µM
OVCAR-5 ovarian
  GI50: 2.73 µM
  TGI: 7.38 µM
BT-549 breast
  GI50: 1.8 µM
  TGI: 5.91 µM
NCI-H460 lung
  GI50: 14 µM
  TGI: 38.8 µM
OVCAR-4 ovarian
  GI50: 3.99 µM
  TGI: 11.3 µM
PC-3 prostate
  GI50: 1.28 µM
  TGI: 9.43 µM
MDA-MB-435
  GI50: 2.17 µM
  TGI: 5.54 µM
SK-MEL-2 melanoma
  GI50: 3.12 µM
  TGI: 15.2 µM
A498 renal
  GI50: 18.1 µM
  TGI: 33.5 µM
NCI-H23 lung
  GI50: 1.5 µM
  TGI: 9.23 µM
COLO 205 colon
  GI50: 2.66 µM
  TGI: > 22.2 µM
HOP-92 NSCLC
  GI50: 2.04 µM
  TGI: 18.7 µM
SN12C renal
  GI50: 1.58 µM
  TGI: 4.27 µM
MALME-3M melanoma
  GI50: 1.73 µM
  TGI: 4.13 µM
ACHN renal
  GI50: 2.24 µM
  TGI: > 21 µM
SK-MEL-5 melanoma
  GI50: 0.118 µM
  TGI: 0.366 µM
UO-31 renal
  GI50: 1.37 µM
  TGI: 3.1 µM
RPMI-8226 leukemia
  GI50: 0.32 µM
  TGI: 2.72 µM
HS 578T breast
  GI50: 3.89 µM
  TGI: 23.1 µM
LOX IMVI melanoma
  GI50: 0.318 µM

## O=[N+]([O-])C[C@@]12O[C@]3(O)C4C5CC(C6C5C3C61)C42 (stereo partly drawn)
HT29 colon
  TGI: > 100 µM
SW-620 colon
  TGI: > 100 µM
EKVX NSCLC
  TGI: > 100 µM
KM12 colon
  TGI: > 100 µM
SF-268 CNS
  TGI: > 100 µM
HCT-15 colon
  TGI: > 100 µM
TK-10 renal
  TGI: > 100 µM
CCRF-CEM leukemia
  TGI: > 100 µM
HL-60(TB) leukemia
  TGI: > 100 µM
MOLT-4 leukemia
  TGI: > 100 µM
SF-295 CNS
  TGI: > 100 µM
MCF7 breast
  TGI: > 100 µM
DU-145 prostate
  TGI: > 100 µM
A549 NSCLC
  TGI: > 100 µM
NCI-H522 lung
  TGI: > 100 µM
HCT-116 colon
  TGI: > 100 µM
SK-MEL-28 melanoma
  TGI: > 100 µM
CAKI-1 renal
  TGI: > 100 µM
MDA-MB-231 breast
  TGI: > 100 µM
SF-539 CNS
  TGI: > 100 µM
M14 melanoma
  TGI: > 100 µM
SNB-19 CNS
  TGI: > 100 µM
OVCAR-8 ovarian
  TGI: > 100 µM
SK-OV-3 ovarian
  TGI: > 100 µM
NCI/ADR-RES ovarian
  TGI: > 100 µM
HOP-62 NSCLC
  TGI: > 100 µM
OVCAR-3 ovarian
  TGI: > 100 µM
K-562 leukemia
  TGI: > 100 µM
UACC-257 melanoma
  TGI: > 100 µM
T-47D breast
  TGI: > 100 µM
UACC-62 melanoma
  TGI: > 100 µM
IGROV1 ovarian
  TGI: > 100 µM
RXF 393 renal
  TGI: > 100 µM
SNB-75 CNS
  TGI: > 100 µM
786-0 renal
  TGI: > 100 µM
NCI-H226 lung
  TGI: > 100 µM
U251 CNS
  TGI: > 100 µM
SR leukemia
  TGI: > 100 µM
OVCAR-5 ovarian
  TGI: > 100 µM
BT-549 breast
  TGI: > 100 µM
NCI-H460 lung
  TGI: > 100 µM
OVCAR-4 ovarian
  TGI: > 100 µM
PC-3 prostate
  TGI: > 100 µM
MDA-MB-435
  TGI: > 100 µM
SK-MEL-2 melanoma
  TGI: > 100 µM
A498 renal
  TGI: > 100 µM
NCI-H23 lung
  TGI: > 100 µM
COLO 205 colon
  TGI: > 100 µM
HOP-92 NSCLC
  TGI: > 100 µM
SN12C renal
  TGI: > 100 µM
MALME-3M melanoma
  TGI: > 100 µM
ACHN renal
  TGI: > 100 µM
SK-MEL-5 melanoma
  TGI: > 100 µM
UO-31 renal
  TGI: > 100 µM
RPMI-8226 leukemia
  TGI: > 100 µM
HS 578T breast
  TGI: > 100 µM
LOX IMVI melanoma
  TGI: > 100 µM
